# Experimental data from patent publication US20260284051A1, “METHIONINE ADENOSYLTRANSFERASE 2A (MAT2A) INHIBITOR COMBINATIONS AND USES THEREOF” (INSILICO MEDICINE IP LIMITED, priority 2023, published 2026).
# Experiments:
# [1] = tested on: NCI-H838 MTAP null xenografts; assay: Efficacy study of NCI-H838 human lung cancer xenograft model in NOD SCID mice; format: in vivo; conditions: for Tumor volume (mm^3) Final (mean): Mean ± SD
# From the text: Efficacy Study of NCI-H838 Human Lung Cancer Xenograft Model in NOD SCID Mice Methods:
# The NCI-H838 cancer cells were maintained in vitro with RPMI-1640 medium supplemented with 10% fetal bovine serum at 37TC in an atmosphere of 5% CO2 in the air. The cells in exponential growth phase were harvested and quantitated by cell counter before tumor inoculation.
# NOD SCID mice, female, 6-8 weeks, weighing approximately 20-22 g, All the mice were purchased from Shanghai Lingchang Bio-Tech Co., Ltd.
# Each mouse was inoculated subcutaneously at the right flank with NCI-H838 cells in a 0.1 mL of PBS mixed with Matrigel (1:1) for tumor development (5×10^6 cells/mouse). Dosing was started when the average tumor size reached approximately ~150 mm^3 for the tumor efficacy study with tool and med chem molecules to look for efficacy vs vehicle tumor growth.
# Mean tumor volume at dosing start was approximately 146.51 mm^3, with six mice randomized to each treatment group. In the NCI-H838 MTAP null tumor model, mice were dosed orally, once per day (QD) with vehicle, once per day (QD) with Compound 1 at 3, 10 mg/kg, mice were intravenous, once per day (QD) with PRMT5 inhibitor MRTX1719 at 50 mg/kg, or Compound 1 combined with MRTX1719 at each dose level.
# KP4 MTAP null xenografts = assay: Efficacy study of KP-4 human pancreatic cancer xenograft model in NOD SCID mice; format: in vivo; conditions: for Tumor volume (mm^3) Final (mean): Mean ± SD
# Method: Efficacy Study of KP-4 Human Pancreatic Cancer Xenograft Model in NOD SCID Mice
# The KP-4 tumor cell line was maintained in vitro as monolayer culture in RPMI 1640 medium supplemented with 10% fetal bovine serum at 37° C. in an atmosphere of […] in air. The tumor cells were routinely subculture weekly by trypsin-EDTA treatment, not to exceed 4-5 passages. The cells growing in an exponential growth phase was harvested and counted for tumor inoculation.
# Each mouse was inoculated subcutaneously on the central right flank with KP-4 tumor cells (1×10^7) in 0.1 mL of RPMI-1640 without serum for the tumor development. The treatment started when the mean tumor size reached approximately 100 mm^3. Mice were assigned to groups such that the mean tumor volume is the same for each treatment group and time point.
# For routine monitoring, all study animals were monitored for not only tumor growth but also behavior such as mobility, food, and water consumption (by cage side checking only), body weight (BW), eye/hair matting and any other abnormal effect. Any mortality and/or abnormal clinical signs were recorded.
# Body weights of all animals were measured twice a week throughout the study. Body weight change, expressed in %, will be calculated using the following formula: BW change (%)=(BWDay x/BWDay 0)×100, where BWDay x is BW on a given day, and BWDay 0 is BW on Day 0 (initiation of treatment).
# The measurement of tumor size were conducted twice a week with a caliper and the tumor volume (mm^3) was estimated using the formula: TV=a×b^2/2, where a and b are long and short diameters of a tumor, respectively. The TVs were used for calculation of the tumor growth inhibition (TGI, an indicator of antitumor effectiveness) value using the formula: TGI (%)=[1−(Tn−T0)/(Cn−C0)]×100%, only over the dosing period (dosing days 0 to days n). Where: Tn—is the avg tumor volume at the respective day “n” after dosing throughout treatment period; T0—is the avg tumor volume in the treatment group at day 0 before treatment (immediately before); Cn—avg tumor volume in the control group at the respective day “n” after dosing throughout treatment period; and C0—average tumor volume in the control group at day 0 before treatment (immediately before). The experiment was terminated when the mean tumor volume exceeded 2000 mm^3 or severe body weight loss.
# The statistical software GraphPad Prism (version number: 8) was used to analyze the difference in tumor volume between the treatment group and the solvent control group. Two-way ANOVA and Bonferroni multiple tests were used to compare whether there was a significant difference in tumor volume between the vehicle control group and each treatment group during the administration period.
# Mean tumor volume at dosing start was approximately 102 mm^3, with ten mice randomized to each treatment group. In the KP4 MTAP null tumor model, mice were dosed orally, once per day (QD) with Vehicle, once per day (QD) with Compound 1 at 1, 3 mg/kg, once per day (QD) with AG270 at 100 mg/kg, mice were intravenous, per week with Docetaxel at 2.5 mg/kg, or Compound 1 combined with Docetaxel at each dose level.
# MAT2A = MAT2A (Homo sapiens, UniProt P31153); assay: MAT2A Biochemical Assay; conditions: read-out: MAT2A enzymatic IC50
# Method: Example A: MAT2A Biochemical Assay
# Compounds described herein were tested as follows:
# • (1). Prepared 1×Assay buffer. • (2). Preparation of compound concentration gradient: the compounds test condition were […], 3-fold dilution, 10 doses, singlet or duplicate. 100x concentration compounds were prepared in 384-well plate. Then used Echo 550 to transfer 250 nl to a 384-reaction plate for later use. Added 250 nl of 100% DMSO to the negative and positive control wells. • (3). Prepared 1.67× final concentration enzyme solution with 1×Assay buffer. • (4). Added 15 μl of 1.67× Enzyme solution to the compound wells and positive control wells; added 15 μl of 1×Assay buffer to the negative control wells. • (5). Centrifuged at 1000 rpm for 30 seconds and incubate for 15 minutes. • (6). Prepared 2.5× final concentration Substrate mix solution with 1×Assay buffer. • (7). Added 10 μl of 2.5× final concentration Substrate mix solution to start the reaction. • (8). Centrifuged at 1000 rpm for 30 seconds and incubate for 150 minutes. • (9). Added […] Biomol Green to stop the reaction, centrifuge at 1000 rpm for 30 seconds and incubate for 15 minutes. read O.D.620, process data.
# • (1) Using GraphPad Prism 5.
# [formula] • (3) Max signal was obtained from the positive control wells. • (4) Min signal was obtained from the negative control wells.
# [2] = combination: Compound 1 3 mg/kg QD + MRTX1719 50 mg/kg QD
# [3] = combination: Compound 1 10 mg/kg QD + MRTX1719 50 mg/kg QD
# Sequence of MAT2A (P31153 whole entry, species assumed): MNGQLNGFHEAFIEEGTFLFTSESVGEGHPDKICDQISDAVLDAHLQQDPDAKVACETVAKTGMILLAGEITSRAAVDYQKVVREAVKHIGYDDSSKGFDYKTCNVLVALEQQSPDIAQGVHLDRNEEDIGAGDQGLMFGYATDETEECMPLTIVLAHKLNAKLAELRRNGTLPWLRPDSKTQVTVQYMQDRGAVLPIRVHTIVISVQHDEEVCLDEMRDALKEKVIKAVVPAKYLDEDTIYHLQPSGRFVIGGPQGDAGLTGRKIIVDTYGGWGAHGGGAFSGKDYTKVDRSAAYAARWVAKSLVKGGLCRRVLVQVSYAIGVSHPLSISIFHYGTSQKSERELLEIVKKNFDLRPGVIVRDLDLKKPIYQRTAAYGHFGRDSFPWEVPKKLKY
structure (smiles),measurement,setting,value
"C#CCNc1nc(=O)n(-c2cccnc2C)c2cc(C(F)(F)F)cc(OC)c12 [Example 36, 5-methoxy-1-(2-methylpyridin-3-yl)-4-(prop-2-yn-1-ylamino)-7-(trifluoromethyl)quinazolin-2(1H)-one]",TGI (%),[1]; Compound 1 3 mg/kg orally QD,1.6%
same,Tumor volume (mm^3) Final (mean),[1]; Compound 1 3 mg/kg orally QD,2029 ± 239 mm^3
same,TGI (%),[1]; Compound 1 10 mg/kg orally QD,19.9%
same,Tumor volume (mm^3) Final (mean),[1]; Compound 1 10 mg/kg orally QD,1678 ± 113 mm^3
same,effect on tumor growth (in words),"[1]; combination of Compound 1 (3, 10 mg/kg) and MRTX1719 50 mg/kg",significantly inhibited tumor growth
same,synergy effect,[1]; combination: Compound 1 3 mg/kg + MRTX1719 50 mg/kg,1.02
same,TGI (%),[1]; [2],83.2%
same,Tumor volume (mm^3) Final (mean),[1]; [2],468 ± 115 mm^3
same,synergy effect,[1]; combination: Compound 1 10 mg/kg + MRTX1719 50 mg/kg,1.21
same,TGI (%),[1]; [3],103.1%
same,Tumor volume (mm^3) Final (mean),[1]; [3],88 ± 7 mm^3
same,TGI (%),KP4 MTAP null xenografts; Compound 1 1 mg/kg orally QD,36.8%
same,Tumor volume (mm^3) Final (mean),KP4 MTAP null xenografts; Compound 1 1 mg/kg orally QD,"1,484 ± 263 mm^3"
same,TGI (%),KP4 MTAP null xenografts; Compound 1 3 mg/kg orally QD,53.4%
same,Tumor volume (mm^3) Final (mean),KP4 MTAP null xenografts; Compound 1 3 mg/kg orally QD,"1,121 ± 181 mm^3"
same,effect on tumor growth (in words),"KP4 MTAP null xenografts; combination of Compound 1 (1, 3 mg/kg) and Docetaxel 2.5 mg/kg",significantly inhibited tumor growth in a dose dependent manner
same,Tumor volume (mm^3) Final (mean),KP4 MTAP null xenografts; combination: Compound 1 1 mg/kg QD + Docetaxel 2.5 mg/kg per week,767 ± 101 mm^3
same,TGI (%),"KP4 MTAP null xenografts; combination: Compound 1 1 mg/kg QD + Docetaxel 2.5 mg/kg per week, listed as Compound 1",69.6%
same,Tumor volume (mm^3) Final (mean),KP4 MTAP null xenografts; combination: Compound 1 3 mg/kg QD + Docetaxel 2.5 mg/kg per week,686 ± 80 mm^3
same,TGI (%),"KP4 MTAP null xenografts; combination: Compound 1 3 mg/kg QD + Docetaxel 2.5 mg/kg per week, listed as Compound 1",73.2%
same,IC50,MAT2A,< 50 nM
